Holding throughout (assay type): in vivo
Series [1] concerns C57 BL/6 J male mice with the high-fat diet. The series can be described thus: Body weight ratio of mice with the high-fat diet. The settings on record: high-fat feed, 12 weeks, compared with model group. As for the experimental part:
(§1) D-arabitol, L-arabitol, L-arabinose, D-arabinose, and D-xylitol each were prepared with sterile distilled water into a 50 g/L or 20 g/L solution.
(§2) A total of 64 SPF-grade 8-week-old C57 BL/6 J male mice were adaptively raised for 3 d with a normal diet in a barrier facility having an independently-ventilated cage (IVC), tested for an initial body weight, and randomly divided into 8 groups. On day 4, the mice in the 8 groups were administered with a normal feed or a high-fat feed, and drinking water for mice in an administration group was replaced with drug-containing water. Each mouse had free access to food and drinking water, and a body weight was recorded weekly. The grouping, diets, and administration were as follows: • (1) normal diet group (Chow): normal feed+sterile distilled water; • (2) high-fat diet group (HFD): high-fat feed+sterile distilled water; • (3) 50 g/L L-arabitol group (HFD+50 g/L L-Arabitol): high-fat feed+50 g/L L-arabitol; • (4) 20 g/L D-arabitol group (HFD+20 g/L D-Arabitol): high-fat feed+20 g/L D-arabitol; • (5) 50 g/L D-arabitol group (HFD+50 g/L D-Arabitol): high-fat feed+50 g/L D-arabitol; • (6) 50 g/L L-arabinose group (HFD+50 g/L L-Arabinose): high-fat feed+50 g/L L-arabinose; • (7) 50 g/L D-arabinose group (HFD+50 g/L D-Arabinose): high-fat feed+50 g/L D-arabinose; and • (8) 50 g/L xylitol group (HFD+50 g/L Xylitol): high-fat feed+50 g/L xylitol.
Mouse body weight ratio: a body weight at the nth week (g)×100%/an initial body weight (g). Data was subjected to statistical tests with Graphpad Prism v9.0. Two-way ANOVA and Tukey's multiple comparison tests were adopted for body weight data, and one-way ANOVA and Dunnett's multiple comparison tests were adopted for other data.

Series [2] has the same test system. Briefly: Blood lipid levels (total TG, LDL-c, HDL-c) in serum of mice with the high-fat diet. The conditions noted are these: high-fat feed, compared with high-fat diet group. As for the experimental part: as §1, §2
(§3) At the end of the experiment, each mouse was anesthetized by intraperitoneal injection of sodium pentobarbital with a concentration of 5 mg/mL, the injection volume was 0.1 mL/10 g, and the injection dose was 50 mg/kg, and then blood was collected from the orbit. The mouse was sacrificed through cervical dislocation, and a liver was collected, rinsed with normal saline, and dried with a filter paper. A liver lobe was taken and fixed in paraformaldehyde. The remaining liver was quickly frozen with liquid nitrogen, and stored at −80° C. The blood was allowed to stand for 30 min and then centrifuged at 3,500 rpm for 10 min to obtain a supernatant, and the supernatant was collected and stored at −80° C.
A serum sample was taken, thawed at 4° C., and tested for serum HDL-c, LDL-c, total TG, ALT, and aspartate aminotransferase (AST) according to instructions of kits.

Series [3] has the same test system. Briefly: Total cholesterol (TC) level in liver of mice with the high-fat diet. The settings on record: high-fat feed 12 weeks, compared with high-fat diet group. As for the experimental part: as §1
as §2, with “xylitol. […]” for “xylitol.”

For series [4] the test system is unchanged. The series can be described thus: Liver histopathology (H&E staining) of mice with the high-fat diet. The settings on record: high-fat feed. As for the experimental part:
as §1, §2, §3
A liver tissue that had been fixed with 4% paraformaldehyde was taken and subjected to gradient dehydration in the dehydrator as follows: in 75% ethanol for 4 h, in 85% ethanol for 2 h, in 90% ethanol for 2 h, in 95% ethanol for 1 h, in absolute ethanol I for 30 min, and in absolute ethanol II for 30 min. A tissue obtained after complete dehydration was permeabilized 1 time with a mixed solution of absolute ethanol and xylene mixed in equal volumes, and then permeabilized 2 times with pure xylene for about 5 min to 10 min each time. […]

The test system is the same in series [5]. Briefly: Serum ALT level of mice with the high-fat diet. The settings on record: high-fat feed 12 weeks, compared with high-fat diet group. As for the experimental part: as §1
as §2, with “xylitol. […]” for “xylitol.”

Series [6] has as its system patient with a high blood or liver lipid level. Briefly: Lipid-lowering method in patient or individual with a high blood or liver lipid level. The source says:
A lipid-lowering method was provided, including: a drug was orally administered to or injected into a patient with a high blood or liver lipid level, where an active ingredient of the drug was D-arabitol.
A lipid-lowering method was provided, including: an individual with a high blood or liver lipid level was allowed to take a health care product or a food, where the health care product or the food included D-arabitol as an active ingredient.

The test system of series [7] is patient with a liver damage caused by a high blood or liver lipid level. Briefly: Hepatoprotection method in patient or individual with a liver damage caused by a high blood or liver lipid level. The source says:
A hepatoprotection method was provided, including: a drug was orally administered to or injected into a patient with a liver damage caused by a high blood or liver lipid level, where an active ingredient of the drug was D-arabitol.
A hepatoprotection method was provided, including: an individual with a liver damage caused by a high blood or liver lipid level was allowed to take a health care product or a food, where the health care product or the food included D-arabitol as an active ingredient.

Structures are written as SMILES.

Consider `O=C[C@@H](O)[C@H](O)[C@H](O)CO` [D-arabinose], for which the body weight ratio result in series [1] (50 g/L in drinking water) is on record as “did not have an effect of making a body weight ratio of mice significantly decrease”.
`OC[C@@H](O)C(O)[C@H](O)CO` [D-arabitol]: the body weight ratio entry in series [1] (20 g/L in drinking water) is listed as “start to significantly decrease from week 8”; in series [1] (50 g/L in drinking water), “start to significantly decrease from week 4”. Also, the “HDL-c concentration in serum” value in series [2] (20 g/L in drinking water) and in series [2] (50 g/L in drinking water) was “significantly reduce” each time. Also, the “LDL-c concentration in serum” value in series [2] (20 g/L in drinking water) and in series [2] (50 g/L in drinking water) was “significantly reduce” throughout. Also, the “total TG in serum” value in series [2] (50 g/L in drinking water) is “decreased significantly”. The “accumulation of TC in the liver” value in series [3] (20 g/L in drinking water) and in series [3] (50 g/L in drinking water) was “significantly reduce” each time. Also, the “white vacuoles (lipid droplets) in the liver tissue, H&E staining” value in series [4] (20 g/L in drinking water) and in series [4] (50 g/L in drinking water) was “no obvious white vacuoles” each time. The “serum ALT concentration” value in series [5] (20 g/L in drinking water) and in series [5] (50 g/L in drinking water) was “significantly reduce” each time. For the same compound, in series [6] (drug orally administered or injected, patient with a high blood or liver lipid level (Example 2)), the “blood or liver lipid level in the patient” value is “decreased effectively”. Also, the “blood or liver lipid level in the individual” value in series [6] (health care product or food taken by individual with a high blood or liver lipid level (Example 4)) is “decreased effectively”. Further, the “liver function in the patient” value in series [7] (drug orally administered or injected, patient with a liver damage caused by a high blood or liver lipid level (Example 3)) is given as “improved effectively”. Also, the “liver function in the individual” value in series [7] (health care product or food taken by individual with a liver damage caused by a high blood or liver lipid level (Example 5)) is given as “improved effectively”.
Turning to `O=C[C@H](O)[C@@H](O)[C@@H](O)CO` [L-arabinose], the body weight ratio result in series [1] (50 g/L in drinking water) is reported as “did not have an effect of making a body weight ratio of mice significantly decrease”.
As to `OC[C@H](O)C(O)[C@@H](O)CO` [L-arabitol, reference compound], in series [1] (50 g/L in drinking water), the body weight ratio entry is recorded as “did not have an effect of making a body weight ratio of mice significantly decrease”. Moreover, in series [4] (50 g/L in drinking water), the “liver cell structures, H&E staining (liver damage)” value is “liver cell structures disappeared” and the “white vacuoles (lipid droplets) in the liver tissue, H&E staining” value is “no significant white vacuoles”.
Turning to `OC[C@@H](O)[C@H](O)[C@@H](O)CO` [xylitol, Xylitol], the body weight ratio result in series [1] (50 g/L in drinking water) is on record as “did not have an effect of making a body weight ratio of mice significantly decrease”.

The values above are taken from patent publication US20240415785A1, “USE OF D-ARABITOL IN LIPID-LOWERING AND HEPATOPROTECTION” (NANJING UNIVERSITY OF CHINESE MEDICINE, priority 2022, published 2024).
